In article PMC8979739, “Phytochemical Profiling of the Leaf Extract of Ximenia americana var. caffra and Its Antioxidant, Antibacterial, and Antiaging Activities In Vitro and in Caenorhabditis elegans: A Cosmeceutical and Dermatological Approach” (Oxidative Medicine and Cellular Longevity, 2022):
Where two headings read alike, the source gives them in different places.

What was measured:
DPPH assay = assay: DPPH assay
Procedure: (§1) Total phenolic content was estimated using the Folin–Ciocalteu method as described in a previous study, while antioxidant activity was determined using two colorimetric methods, DPPH assay and FRAP assay. The analysis was performed as in the previous study.

[1] = target: Porcine pancreatic elastase (Sus scrofa, UniProt P00772); assay: Elastase inhibition; type: biochemical
Sequence of Porcine pancreatic elastase (P00772 27-266): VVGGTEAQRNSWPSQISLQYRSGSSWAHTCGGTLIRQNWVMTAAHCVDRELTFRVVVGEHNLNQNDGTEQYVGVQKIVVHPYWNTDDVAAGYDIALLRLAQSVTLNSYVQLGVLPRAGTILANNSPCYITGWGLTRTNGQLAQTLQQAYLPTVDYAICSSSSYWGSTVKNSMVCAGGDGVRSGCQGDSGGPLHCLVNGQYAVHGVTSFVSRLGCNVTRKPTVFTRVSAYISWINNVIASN
Procedure: This assay was performed according to a previous study. Porcine pancreatic elastase was used in this assay at stock concentration of 3.33 mg/mL in sterile water. N-Succinyl-[…]-nitroanilide ([…]) was used as a substrate and dissolved in buffer to make up 1.6 mM solution. A serial dilution of the extract with amount of 50 μL each was incubated with the enzyme for 15 min, and the substrate was added subsequently and makes up the final reaction mixture of 250 μL. Absorbance value was measured at 400 nm using a microplate reader. Each measurement was made in triplicate. The percentage of elastase inhibition (%) was calculated according to the formula: inhibition (%) = [(Acontrol - Asample/Acontrol) × 100]. […] A control: absorbance value of the elastase activity from negative control (solution without samples)

mushroom tyrosinase = mushroom tyrosinase (Agaricus bisporus, UniProt C7FF04); assay: Tyrosinase inhibition; type: biochemical; details: mean ± SD
Sequence of mushroom tyrosinase (C7FF04 2-392): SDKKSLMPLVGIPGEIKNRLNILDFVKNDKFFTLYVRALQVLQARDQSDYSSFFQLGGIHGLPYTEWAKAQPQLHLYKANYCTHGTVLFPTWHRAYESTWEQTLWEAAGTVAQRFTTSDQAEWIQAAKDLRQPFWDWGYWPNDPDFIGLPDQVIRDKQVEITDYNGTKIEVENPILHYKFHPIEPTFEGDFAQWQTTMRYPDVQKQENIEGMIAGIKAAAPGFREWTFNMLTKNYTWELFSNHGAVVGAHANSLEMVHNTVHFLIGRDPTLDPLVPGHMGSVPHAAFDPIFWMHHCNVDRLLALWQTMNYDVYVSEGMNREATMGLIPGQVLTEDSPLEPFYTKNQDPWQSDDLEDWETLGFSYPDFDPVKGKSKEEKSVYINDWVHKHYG
Procedure: This assay was performed using mushroom tyrosinase and L-DOPA as substrates, according to a previous study with slight modifications. […] After adding L-DOPA, the reaction mixture was monitored at 475 nm for dopachrome formation using a microplate reader (Costar, 96). Each measurement was made in triplicate. The percentage of tyrosinase inhibition (%) was calculated according to the formula: inhibition (%) = [(Acontrol − Asample/Acontrol) × 100]. […] A control: absorbance value of the tyrosinase activity from negative control (solution without samples)

[2] = target: Collagenase from Clostridium histolyticum; assay: Collagenase inhibition; type: biochemical; details: mean ± SD
Procedure: The assay was performed according to a previous study. Collagenase was obtained from Clostridium histolyticum (ChC—EC.3.4.23.3), and the assay was performed in 50 mM Tricine buffer consisting of 400 mM NaCl and 10 mM CaCl2 (pH 7.5). Collagenase was dissolved in the buffer to achieve an enzyme activity concentration of 0.8 unit/mL, and the synthetic substrate N-[3-(2-furyl) acryloyl]-Leu-Gly-Pro-Ala (FALGPA) was dissolved in the buffer to make up the final concentration of 2 mM. Serial diluted samples were incubated with the enzyme for 15 min. After that, the substrate was added to each serial solution. Absorbance was measured using a microplate reader (Costar, 96) at 490 nm. Each measurement was made in triplicate. Percentage of collagenase inhibition (%) was calculated according to the formula: inhibition (%) = [(Acontrol − Asample/Acontrol) × 100].
A sample: absorbance value of the collagenase activity from samples or positive control (quercetin)
A control: absorbance value of the collagenase activity from negative control (solution without samples)

hyaluronidase = target: T1, hyaluronidase (Bos taurus, UniProt Q2YDK3); assay: Hyaluronidase inhibition; type: biochemical; details: mean ± SD
T1 sequence (Q2YDK3 36-553): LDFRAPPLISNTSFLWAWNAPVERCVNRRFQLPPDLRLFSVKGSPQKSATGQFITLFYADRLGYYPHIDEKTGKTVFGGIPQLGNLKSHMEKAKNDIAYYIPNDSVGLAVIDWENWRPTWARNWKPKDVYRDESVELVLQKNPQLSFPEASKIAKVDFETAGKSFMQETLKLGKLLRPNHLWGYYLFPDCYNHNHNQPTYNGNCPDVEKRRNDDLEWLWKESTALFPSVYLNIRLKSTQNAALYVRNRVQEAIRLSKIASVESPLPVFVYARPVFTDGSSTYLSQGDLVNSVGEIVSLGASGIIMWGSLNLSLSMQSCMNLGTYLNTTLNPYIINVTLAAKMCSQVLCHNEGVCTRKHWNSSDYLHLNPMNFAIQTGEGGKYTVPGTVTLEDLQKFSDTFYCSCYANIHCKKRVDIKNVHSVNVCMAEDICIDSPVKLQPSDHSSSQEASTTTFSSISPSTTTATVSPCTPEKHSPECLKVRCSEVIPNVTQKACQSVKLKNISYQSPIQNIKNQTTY
Procedure: The hyaluronidase inhibition assay was performed using hyaluronidase (1.5 mg/mL) and the substrate hyaluronic acid (1 mg/ml in 0.1 M acetate buffer; pH 3.5), according to a previous study. The reaction mixture was prepared consisting of 25 μL of CaCl2 (12.5 mM), 12.5 μL of each test sample (serial dilution), hyaluronidase (1.5 mg/mL), and 100 μL substrate hyaluronic acid. Afterwards, reaction mixture was placed in a water bath at 100°C for 3 min, and subsequently, 25 μL of 0.8 M KBO2 was added. After cooling to the room temperature, 800 μL DMAB (4 g DMAB in 40 mL acetic acid and 5 mL 10 N HCl) was added to the mixture following the incubation for 20 min. The absorbance was measured at 600 nm. Each measurement was made in triplicate. The percentage of hyaluronidase inhibition (%) was calculated according to the formula: inhibition (%) = [(Acontrol − Asample/Acontrol) × 100].
A sample: absorbance value of the hyaluronidase activity from samples or positive control (quercetin)
A control: absorbance value of the hyaluronidase activity from negative control (solution without samples)

FRAP assay = assay: FRAP assay
Procedure: as §1

[3] = mean ± SD, read-out: Elastase IC50 (converted)

| Compound | Collagenase IC50 [2] | IC50 [1, 3] | further results |
| --- | --- | --- | --- |
| O=C1O[C@H]([C@@H](O)CO)C(O)=C1O [Ascorbic acid] |  |  | DPPH (EC50) (DPPH assay): 2.92 ± 0.29 µg/mL |
| O.Oc1cc(O)c2c(c1)O[C@H](c1ccc(O)c(O)c1)[C@@H](O)C2 [Catechin] | 29.33 ± 2.4 µg/mL |  | Elastase IC50 ([1]; mean ± SD): 15.00 ± 5.9 µg/mL; Tyrosinase IC50 (mushroom tyrosinase): 22.54 ± 4.61 µg/mL; Hyaluronidase IC50 (hyaluronidase): 22.99 ± 0.2 µg/mL |
| Oc1cc(O)c2c(c1)O[C@H](c1ccc(O)c(O)c1)[C@H](O)C2 [Epicatechin] | 65.96 ± 7.8 µg/mL | 145 µM |  |
| O=c1cc(CO)occ1O [Kojic acid, reference compound] |  |  | IC50 [1]: 152 µM |
| O=c1c(O)c(-c2ccc(O)c(O)c2)oc2cc(O)cc(O)c12 [Quercetin] |  |  | FRAP (FRAP assay): 24.04 ± 1.23 mM FeSO4/mg extract |
| O=C(O)[C@]1(O)C[C@@H](O)[C@@H](O)[C@H](O)C1 [Quinic acid] | 52.78 ± 1.8 µg/mL | 748 µM |  |
| C[C@@H]1O[C@@H](OC[C@H]2O[C@@H](Oc3c(-c4ccc(O)c(O)c4)oc4cc(O)cc(O)c4c3=O)[C@H](O)[C@@H](O)[C@@H]2O)[C@H](O)[C@H](O)[C@H]1O [Rutin] | 63.46 ± 3.4 µg/mL | 199 µM |  |
